Reference: ChEMBL document CHEMBL3046477, “Carbamate derivatives of felbamate as potential anticonvulsant agents” (Med Chem Res, 2010)
Activity calls are given as the source filed them. The calls are words filed in the database; no cut-off is given here.

Legend:
[1] = system: Mus musculus; assay: Anticonvulsant activity in Mus musculus (mouse) assessed as protection against maximal electroshock-induced seizure at 300 mg/kg, ip; type: functional, organism-based; design: dose 300 mg/kg
[2] = system: Mus musculus; assay: Anticonvulsant activity in ip dosed Mus musculus Swiss Webster (mouse) assessed as protection against subcutaneous pentylenetetrazole-induced seizure at 0.5 hr; type: functional
[3] = system: Mus musculus; assay: Anticonvulsant activity in ip dosed Mus musculus Swiss Webster (mouse) assessed as protection against maximal electroshock-induced seizure at 0.5 hr; type: functional
[4] = system: Mus musculus; assay: Anticonvulsant activity in Mus musculus (mouse) assessed as protection against subcutaneous pentylenetetrazole-induced seizure at 300 mg/kg, ip; type: functional, organism-based; design: dose 300 mg/kg
[5] = system: Rattus norvegicus; assay: Anticonvulsant activity in po dosed Rattus norvegicus (rat) assessed as protection against maximal electroshock-induced seizure; type: functional
[6] = system: Rattus norvegicus; assay: Anticonvulsant activity in po dosed Rattus norvegicus (rat) assessed as protection against subcutaneous pentylenetetrazole-induced seizure; type: functional
[7] = system: Mus musculus; assay: Anticonvulsant activity in ip dosed Mus musculus (mouse) assessed as protection against subcutaneous pentylenetetrazole-induced seizure; type: functional
[8] = system: Mus musculus; assay: Anticonvulsant activity in ip dosed Mus musculus (mouse) assessed as protection against maximal electroshock-induced seizures; type: functional
[9] = system: Rattus norvegicus; assay: Protective index, ratio of TD50 for po dosed Rattus norvegicus (rat) to ED50 for po dosed rat by maximal electroshock seizures test; type: functional
[10] = Neurotoxicity in ip dosed Mus musculus (mouse) assessed as minimal motor impairment by rotorod test; type: toxicity, organism-based; conditions: in vivo
[11] = system: Rattus norvegicus; assay: Protective index, ratio of TD50 for po dosed Rattus norvegicus (rat) to ED50 for po dosed rat by subcutaneous pentylenetetrazole seizure test; type: functional
[12] = Neurotoxicity in po dosed Rattus norvegicus (rat) assessed as minimal motor impairment by rotorod test; type: toxicity, organism-based; conditions: in vivo
[13] = system: Rattus norvegicus; assay: Anticonvulsant activity Rattus norvegicus (rat) assessed as reduction of hippocampus kindling at 100 mg/kg, ip; type: functional, organism-based; design: dose 100 mg/kg
[14] = Neurotoxicity in ip dosed Rattus norvegicus (rat) assessed as minimal motor impairment at 0.5 hr by rotorod test; type: toxicity, organism-based; conditions: in vivo
[15] = system: Mus musculus; assay: Anticonvulsant activity in Mus musculus (mouse) assessed as protection against maximal electroshock-induced seizure at 100 mg/kg, ip; type: functional, organism-based; design: dose 100 mg/kg
[16] = system: Rattus norvegicus; assay: Neurotoxicity in Rattus norvegicus (rat) at 300 mg/kg, ip; type: toxicity, organism-based; design: dose 300 mg/kg, route intraperitoneal; conditions: in vivo
[17] = system: Rattus norvegicus; assay: Anticonvulsant activity in ip dosed Rattus norvegicus (rat) assessed as protection against maximal electroshock-induced seizure; type: functional
[18] = system: Rattus norvegicus; assay: Anticonvulsant activity in Rattus norvegicus (rat) assessed as protection against maximal electroshock-induced seizure at 30 mg/kg, po; type: functional, organism-based; design: dose 30 mg/kg
[19] = system: Mus musculus; assay: Anticonvulsant activity in Mus musculus (mouse) assessed as protection against subcutaneous pentylenetetrazole-induced seizure up to 300 mg/kg, ip; type: functional, organism-based; design: dose 300 mg/kg
[20] = system: Mus musculus; assay: Anticonvulsant activity in po dosed Mus musculus Swiss Webster (mouse) assessed as protection against maximal electroshock-induced seizure at 0.5 hr; type: functional
[21] = system: Mus musculus; assay: Anticonvulsant activity in po dosed Mus musculus (mouse) assessed as protection against maximal electroshock-induced seizure; type: functional
[22] = system: Rattus norvegicus; assay: Neurotoxicity in Rattus norvegicus (rat) assessed as minimal motor impairment at 20 mg/kg, ip at 10 min by rotorod test; type: toxicity, organism-based; design: dose 20 mg/kg, route intraperitoneal; conditions: in vivo
[23] = system: Rattus norvegicus; assay: Neurotoxicity in Rattus norvegicus (rat) assessed as minimal motor impairment at 20 mg/kg, ip at 30 min by rotorod test; type: toxicity, organism-based; design: dose 20 mg/kg, route intraperitoneal; conditions: in vivo, 0.5 h
[24] = system: Mus musculus; assay: Anticonvulsant activity in Mus musculus (mouse) assessed as protection against maximal electroshock-induced seizure up to 300 mg/kg, ip; type: functional, organism-based; design: dose 300 mg/kg
[25] = system: Rattus norvegicus; assay: Neurotoxicity in Rattus norvegicus (rat) assessed as minimal motor impairment at 20 mg/kg, ip at 60 min by rotorod test; type: toxicity, organism-based; design: dose 20 mg/kg, route intraperitoneal; conditions: in vivo, 1 h
[26] = system: Rattus norvegicus; assay: Anticonvulsant activity in Rattus norvegicus (rat) assessed as protection against maximal electroshock-induced seizure at 20 mg/kg, ip at 60 min; type: functional, organism-based; design: dose 20 mg/kg
[27] = system: Rattus norvegicus; assay: Neurotoxicity in Rattus norvegicus (rat) assessed as minimal motor impairment at 20 mg/kg, ip at 5 min by rotorod test; type: toxicity, organism-based; design: dose 20 mg/kg, route intraperitoneal; conditions: in vivo
[28] = system: Rattus norvegicus; assay: Anticonvulsant activity in Rattus norvegicus (rat) assessed as protection against maximal electroshock-induced seizure at 20 mg/kg, ip at 10 min; type: functional, organism-based; design: dose 20 mg/kg
[29] = system: Rattus norvegicus; assay: Neurotoxicity in Rattus norvegicus (rat) assessed as minimal motor impairment at 20 mg/kg, ip at 15 min by rotorod test; type: toxicity, organism-based; design: dose 20 mg/kg, route intraperitoneal; conditions: in vivo, 0.25 h
[30] = system: Mus musculus; assay: Anticonvulsant activity in Mus musculus Swiss Webster (mouse) assessed as protection against maximal electroshock-induced seizure at 300 mg/kg, ip at 0.5 hr; type: functional, organism-based; design: dose 300 mg/kg
[31] = system: Mus musculus; assay: Anticonvulsant activity in Mus musculus Swiss Webster (mouse) assessed as protection against subcutaneous pentylenetetrazole-induced seizure up to 300 mg/kg, ip at 0.5 hr; type: functional, organism-based; design: dose 300 mg/kg
[32] = system: Rattus norvegicus; assay: Anticonvulsant activity in Rattus norvegicus (rat) assessed as protection against maximal electroshock-induced seizure at 20 mg/kg, ip at 15 min; type: functional, organism-based; design: dose 20 mg/kg
[33] = system: Rattus norvegicus; assay: Anticonvulsant activity in Rattus norvegicus (rat) assessed as protection against maximal electroshock-induced seizure at 20 mg/kg, ip at 30 min; type: functional, organism-based; design: dose 20 mg/kg

With `CCCC(CO)NC(=O)OCc1ccccc1` (racemic) the Activity [1] was “Active”, the ED50 [2] was 281 mg/kg and the ED50 [3] was 51.8 mg/kg. For the same compound, the Activity [4] was “Active”.

`CCC(COC(N)=O)c1ccccc1` (racemic) showed an ED50 [5] of 21 mg/kg, an ED50 [6] of over 40 mg/kg and an ED50 [7] of 87.6 mg/kg. The ED50 [8] was 72.7 mg/kg, the “Ratio TD50/ED50” value [9] was over 15.3 and the ED50 [2] was 124 mg/kg. For the same compound, the TD50 [10] was 114 mg/kg, the “Ratio TD50/ED50” value [11] was 8 and the TD50 [12] was over 320 mg/kg. For the same compound, the Activity [13] was “inactive”, the TD50 at 0.5 h [14] was 50.5 mg/kg and the Activity [15] was “Active”. For the same compound, the ED50 [3] was 71.7 mg/kg, the Activity [16] was “Toxic” and the ED50 [17] was 16.1 mg/kg. For the same compound, the Activity [4] was “Active” and the Activity [18] was “Active”.

For `O=C(NCCO)OCc1ccccc1`, the Activity [19] was “inactive”, the Activity [1] was “Active” and the ED50 [2] was 170 mg/kg. It also gave an ED50 [3] of 25.2 mg/kg.

For `CC[C@@H](CO)NC(=O)OCc1ccccc1`, the Activity [19] was “inactive”, the Activity [1] was “Active” and the ED50 [2] was 111 mg/kg. For the same compound, the ED50 [3] was 123 mg/kg.

In the case of `O=C(N[C@H](CO)Cc1ccccc1)OCc1ccccc1`, the Activity [19] is reported as “inactive”, the Activity [1] is reported as “Active” and the Activity [2] is reported as “Active”. The ED50 [3] was 33.5 mg/kg.

`NC(=O)OCC(COC(N)=O)c1ccccc1` [FELBAMATE] showed an ED50 [5] of 25.3 mg/kg, an ED50 [6] of over 250 mg/kg and an ED50 [7] of 126 mg/kg. The ED50 [8] was 35.5 mg/kg, the ED50 [2] was 548 mg/kg and the TD50 [12] was over 500 mg/kg. The Activity [13] was “inactive”, the ED50 [20] was 52 mg/kg and the ED50 [3] was 35 mg/kg.

`NC(=O)OCC(CO)c1ccccc1` (stereo unspecified) gave an ED50 [21] of 154 mg/kg.

Work on `NC(=O)OCc1ccccc1` [BENZYL CARBAMATE] yielded an ED50 [2] of 80.2 mg/kg and an ED50 [3] of 30.6 mg/kg.

For `C[C@H](CO)NC(=O)OCc1ccccc1`, the Activity [19] was “inactive”, the ED50 [5] was 23.9 mg/kg and the ED50 [6] was over 250 mg/kg. The Activity [22] was “Non-toxic”, the “Ratio TD50/ED50” value [9] was over 21 and the Activity [23] was “Non-toxic”. The ED50 [2] was 226 mg/kg, the “Ratio TD50/ED50” value [11] was 2 and the TD50 [12] was over 500 mg/kg. The Activity [24] was “inactive”, the Activity [13] was “inactive” and the Activity [25] was “Non-toxic”. The ED50 [3] was 60.1 mg/kg, the Activity [26] was “inactive” and the Activity [16] was “Toxic”. The Activity [27] was “Non-toxic”, the Activity [28] was “inactive” and the Activity [29] was “Non-toxic”.

For `NC(=O)Oc1ccccc1` [CARBAMIC ACID PHENYL ESTER], the ED50 [2] was 101 mg/kg and the Activity [30] was “Active”.

With `O=C(N[C@@H](CO)Cc1ccccc1)OCc1ccccc1` the Activity [19] was “inactive”, the Activity [1] was “Active” and the Anticonvulsant activity [2] was “Active”. It also gave an ED50 [3] of 14.9 mg/kg.

For `CC[C@H](CO)NC(=O)OCc1ccccc1`, the Activity [19] was “inactive”, the Activity [1] was “Active” and the ED50 [2] was 144 mg/kg. It also gave an ED50 [3] of 80.5 mg/kg.

With `NC(=O)OCCc1ccccc1` [PHENYLETHYL CARBAMATE] the ED50 [3] was 17.7 mg/kg and the Activity [31] was “inactive”.

In the case of `C[C@@H](CO)NC(=O)OCc1ccccc1`, the Activity [19] is reported as “inactive”, the ED50 [5] is reported as 67.6 mg/kg and the ED50 [6] is reported as over 125 mg/kg. For the same compound, the Activity [22] was “Non-toxic”, the “Ratio TD50/ED50” value [9] was over 5.3 and the Activity [23] was “Non-toxic”. The ED50 [2] was 258 mg/kg, the Activity [32] was “inactive” and the “Ratio TD50/ED50” value [11] was 2.88. The TD50 [12] was over 360 mg/kg, the Activity [24] was “inactive” and the Activity [25] was “Non-toxic”. For the same compound, the ED50 [3] was 54.7 mg/kg, the Activity [33] was “inactive” and the Activity [27] was “Non-toxic”. The Activity [29] was “Non-toxic” and the Activity [18] was “Active”.

In the case of `CNC(=O)OCc1ccccc1` [BENZYL N-METHYLCARBAMATE], the ED50 [3] is reported as 40.5 mg/kg and the Activity [31] is reported as “inactive”.

For `O=C(NCc1ccccc1)OCc1ccccc1` [BENZYL BENZYLCARBAMATE], the Activity [19] was “inactive”, the Activity [1] was “Active” and the ED50 [2] was 115 mg/kg. It also gave an ED50 [3] of 170 mg/kg.

For `CCCC(C)(COC(N)=O)COC(N)=O` [MEPROBAMATE], the ED50 [2] was 66 mg/kg, the ED50 [20] was 165 mg/kg and the ED50 [3] was 127 mg/kg.
